Measured values published in patent US9598459B2, “Pharmaceutical compositions and methods” (priority 2015, dated 2017).
“And” between values parts separate entries of the source, which are not always exact repeats. Equal values may be shown once. Read-outs that look alike come from different tables or passages of the source.

How the values were obtained:
GR = GR (Mus musculus, UniProt P06537); settings: cited from earlier work
in vitro = settings: dog
[1] = system: West Nile virus Kern 515, WN02; assay: West Nile virus antiviral screen in Vero 76; format: cell-based
OM-10.1 cells = assay: Toxicity in OM-10.1 (Cell Titer 96); settings: for TOXICITY VALUES (Cell Titer 96): SAMPLE 1-3, MEAN

Sequence of GR (P06537 whole entry): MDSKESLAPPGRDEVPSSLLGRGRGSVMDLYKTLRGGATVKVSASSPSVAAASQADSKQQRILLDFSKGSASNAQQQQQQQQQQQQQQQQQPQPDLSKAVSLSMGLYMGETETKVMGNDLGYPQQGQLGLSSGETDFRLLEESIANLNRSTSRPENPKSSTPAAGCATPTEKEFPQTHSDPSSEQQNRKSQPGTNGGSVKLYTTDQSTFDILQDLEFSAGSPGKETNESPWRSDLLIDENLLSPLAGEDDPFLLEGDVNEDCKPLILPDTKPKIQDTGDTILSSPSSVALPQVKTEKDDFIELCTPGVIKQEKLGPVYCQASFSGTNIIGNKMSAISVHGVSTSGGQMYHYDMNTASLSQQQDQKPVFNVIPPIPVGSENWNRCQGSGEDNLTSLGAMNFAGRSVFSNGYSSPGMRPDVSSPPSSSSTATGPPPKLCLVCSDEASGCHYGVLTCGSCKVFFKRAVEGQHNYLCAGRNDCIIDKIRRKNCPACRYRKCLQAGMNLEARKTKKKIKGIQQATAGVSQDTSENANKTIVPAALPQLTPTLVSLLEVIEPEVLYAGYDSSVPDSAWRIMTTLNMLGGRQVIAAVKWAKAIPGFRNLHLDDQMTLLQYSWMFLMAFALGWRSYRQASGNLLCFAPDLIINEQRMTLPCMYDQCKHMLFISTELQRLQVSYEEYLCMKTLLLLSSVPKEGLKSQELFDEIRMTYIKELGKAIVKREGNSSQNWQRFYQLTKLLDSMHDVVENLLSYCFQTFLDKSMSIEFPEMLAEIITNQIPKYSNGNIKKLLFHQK

## CC#C[C@]1(O)CC[C@H]2[C@@H]3CCC4=CC(=O)CCC4=C3[C@@H](c3ccc4c(c3)OCO4)C[C@@]21C [PT150, (11β,17β)-11-(1,3-benzodioxol-5-yl)-17-hydroxy-17-(1-propynyl)-estra-4,9-dien-3-one]
GR
  block of corticosterone-induced GR translocation: able to block corticosterone-induced GR translocation
In vitro; CC50
  CC50: 29 µg/mL
In vitro; Cytotoxicity 50% CC50
  CC50: 17 µM

## CC#CC1(O)CCC2C3CCC4=CC(=NNC(N)=S)CCC4=C3C(c3ccc4c(c3)OCO4)CC21C.CC#CC1(O)CCC2C3CCC4=CC(=O)CCC4=C3C(c3ccc4c(c3)OCO4)CC21C.CC(C)=O.CCO.O (stereo not drawn) [PT155, ⅓ (11β,17β)-17-Hydroxy-11-[3,4-(methylenedioxy)phenyl]-17-(1-propyn-1-yl)estra-4,9-dien-3-one (ORG34517)×(2EZ)-2-{(11β,17β)-17-hydroxy-11-[3,4-(methylenedioxy)phenyl]-17-(1-propyn-1-yl)estra-4,9-dien-3-ylidene}hydrazinecarbothioamide [71.8% (E), 28.2% (Z)] hemihydrate×¾% acetone× ⅛ ethanol]
[1]; Neutral Red
  EC50: >55 µg/mL
[1]; Visual (Cytopathic effect/Toxicity), unit from Conc. Range
  EC50: >22 µg/mL
OM-10.1 cells; 0.01 μM
  % CC: 93.9%
  TOXICITY VALUES (Cell Titer 96): 0.707 O.D. @ 490/650 nm and 0.669 O.D. @ 490/650 nm and 0.567 O.D. @ 490/650 nm
OM-10.1 cells; 0.03 μM
  % CC: 105.6%
  TOXICITY VALUES (Cell Titer 96): 0.749 O.D. @ 490/650 nm and 0.794 O.D. @ 490/650 nm and 0.642 O.D. @ 490/650 nm
OM-10.1 cells; 0.10 μM
  % CC: 110.0%
  TOXICITY VALUES (Cell Titer 96): 0.867 O.D. @ 490/650 nm and 0.820 O.D. @ 490/650 nm and 0.590 O.D. @ 490/650 nm
OM-10.1 cells; 1.00 μM
  % CC: 119.25%
  TOXICITY VALUES (Cell Titer 96): 0.937 O.D. @ 490/650 nm and 0.911 O.D. @ 490/650 nm and 0.618 O.D. @ 490/650 nm
OM-10.1 cells; 3.16 μM
  % CC: 109.6%
  TOXICITY VALUES (Cell Titer 96): 0.896 O.D. @ 490/650 nm and 0.800 O.D. @ 490/650 nm and 0.572 O.D. @ 490/650 nm
OM-10.1 cells; 10.0 μM
  % CC: 105.7%
  TOXICITY VALUES (Cell Titer 96): 0.828 O.D. @ 490/650 nm and 0.761 O.D. @ 490/650 nm and 0.599 O.D. @ 490/650 nm
OM-10.1 cells; 31.6 μM
  % CC: 93.4%
  TOXICITY VALUES (Cell Titer 96): 0.714 O.D. @ 490/650 nm and 0.682 O.D. @ 490/650 nm and 0.536 O.D. @ 490/650 nm
OM-10.1 cells; 100 μM
  % CC: 112.5%
  TOXICITY VALUES (Cell Titer 96): 0.777 O.D. @ 490/650 nm and 0.775 O.D. @ 490/650 nm
OM-10.1 cells; OM-10.1
  TC 90%: >100 µM
  TC 95%: >100 µM
OM-10.1 cells; OM-10.1, Table 7
  CC50: > 100 µM
OM-10.1 cells; read-out: TC 50%, OM-10.1
  CC50: > 100 µM
